Source: patent publication US8044028B2, “Oligopeptides and their use in cosmetics” (Cognis France S.A.S., priority 2004, dated 2011)
No end group written: not given here. *: point of attachment. Palmitoyl = CCCCCCCCCCCCCCCC(=O)*

Key:
[1] = test system: human keratinocytes; test: Effects on the growth of human primary keratinocytes (cellular DNA content, ethidium bromide fluorescence); format: cell-based; conditions: for DNA after culture for 3 days: % based on control = 100; for DNA after culture for 4-5 days: % based on control (standard medium without additives = 100), average of 3 assays in triplicate; for growth of human keratinocytes (result in words): keratinocytes cultivated from biopsies of adult subjects, activity still detected after 5 days without changing medium
Procedure: The aim of this test was to analyse the revitalizing and regenerating activities of oligpopeptides according to the invention on human keratinocyte cultures in vitro.
Human keratinocytes were obtained by trypsinization of skin biopsies. They were incubated in standard medium for cell cultures with foetal calf serum (FCS) and growth factors (EGF 10 ng/ml). After cultivation for 2 days at 37° C. and a CO2 content of 5%, the medium was replaced by standard medium with varying concentrations of peptides. […] The fluorescence was determined using a fluorimeter (excitation at 538 nm and emission at 590 nm). The foetal calf serum forms a positive control because it comprises many growth factors, such as, for example, IGF (insulin-like growth factor) and PDGF (platelet derived growth factor).
The results are shown in Table 1 and 2 as the average value from 3 assays in triplicate in % based on a control in which the standard medium comprised no additives.

[2] = test system: syndecan-1; test: Stimulation of the synthesis of syndecan-1 on human keratinocytes (immunocytochemistry, image analysis); format: cell-based; conditions: keratinocyte culture, biopsies of adult subjects
Procedure: Monoclonal antibody anti-syndecan-1 and secondary antibody FITC conjugated were obtained from TEBU, Le Perray en Yvelines and BIO-RAD, Marnes-la-Coquette; KGF (Keratinocyte Growth Factor) (positive control) was obtained from SIGMA, L′Isle d'Abeau Chesnes.
Human keratinocytes were seeded in DMEM standard medium for 2 days at 37° C., CO2=5%. Then, N-Acetyl-Pro-Pro-Tyr-Leu (Seq. ID No. 375) or positive control KGF are introduced and after 5 days of incubation at 37° C., CO2=5%, the synthesis of syndecan-1 was evaluated on glass slides by immunocytochemistry. Quantification of the staining was carried out by image analysis.
The results are shown in table 3 as the mean of the sum±SEM of the product of number of pixels by green detected values (arbitrary unit).

Molecule | DNA after culture for 3 days ([1]; 0.00005 % (w/v) peptide) | DNA after culture for 3 days ([1]; 0.00015 % (w/v) peptide) | DNA after culture for 4-5 days ([1]; 0.001 % (w/v) peptide) | DNA after culture for 4-5 days ([1]; 0.003 % (w/v) peptide) | growth of human keratinocytes (result in words) [1] | syndecan-1 expression / synthesis in human keratinocytes (result in words) [2]
N-Palmitoyl-Pro-Pro-Tyr-Leu (Palmitoyl-PPYL) [Example 7, [AA] is Pro-Pro-Tyr-Leu, R1 is Palmitoyl and R2 is OH] | 136 +/− 13% | 135 +/− 8% |  |  |  | 
RRRPRPPYLPRPRPP [Example 1] |  |  | 124 +/− 15% | 131 +/− 11% | stimulate the growth of human keratinocytes | 
Pro-Pro-Tyr-Leu (PPYL; peptide derived from cathelicidin PR-39) [Example 4, R1=H, R2=OH] |  |  | 150 +/− 26% | 166 +/− 7% | stimulate the growth of human keratinocytes | 
Pro-Tyr-Leu-Pro-Arg (PYLPR; peptide derived from cathelicidin PR-39) [Example 5, R1=H, R2=OH] |  |  | 118 +/− 3% | 112 +/− 5% | stimulate the growth of human keratinocytes | 
N-Acetyl-Pro-Pro-Tyr-Leu (Ac-PPYL) [[AA] is Pro-Pro-Tyr-Leu, R1 is Acetyl, and R2 is OH] |  |  |  |  |  | stimulates the synthesis of syndecan-1
Tyr-Leu-Pro-Arg-Pro [Example 6] |  |  | 110 +/− 6% | 146 +/− 24% | stimulate the growth of human keratinocytes | 
Arg-Pro-Pro-Tyr-Leu (RPPYL; peptide derived from cathelicidin PR-39) [Example 3, R1=H, R2=OH] |  |  | 97 +/− 1% | 118 +/− 10% | stimulate the growth of human keratinocytes | 
Arg-Arg-Arg-Pro-Arg (RRRPR; peptide derived from cathelicidin PR-39) [Example 2, R1=H, R2=OH] |  |  | 119 +/− 6% | 126 +/− 8% | stimulate the growth of human keratinocytes | 
KGF: KGF (Keratinocyte Growth Factor) (positive control), obtained from SIGMA (protein, UniProt P21781 32-194, looked up) Fibroblast growth factor 7: CNDMTPEQMATNVNCSSPERHTRSYDYMEGGDIRVRRLFCRTQWYLRIDKRGKVKGTQEMKNNYNIMEIRTVAVGIVAIKGVESEFYLAMNKEGKLYAKKECNEDCNFKELILENHYNTYASAKWTHNGGEMFVALNQKGIPVRGKKTKKEQKTAHFLPMAIT |  |  |  |  |  | induced an increase of syndecan-1 expression
